Measured values published in patent US9700533B2, “Maternal chelation for embryo, fetal and infant benefit” (priority 2005, dated 2017).
Where two headings read alike, the source gives them in different places.

Tests used:
[1] = Chelation-provoked urine test, urinary lead
Description: (§1) The terms “diagnostic provocation” and “chelation-provoked urine tests” and related terms refer to a procedure whereby the patient is administered one of more dosages of chelators, after which the patient's urine is collected for a defined period of time. The collected urine is analyzed for metal content, the metal having been removed from the patient's body by the chelators. The results of this procedure can indicate which metals are present in the patient's body and the approximate levels of the metals, which is subsequently used in designing a course of chelation therapy.
(§2) The metals may be measured with or without prior chelation provocation. The standard values accepted by medical laboratories are measured without chelation provocation. Treatment with chelation medication mobilizes metal stores within in the body to be detected in the urine, thus values obtained post-provocation will be increased.

[2] = Chelation-provoked urine test, urinary tin; type: in vivo, human; conditions: for urinary tin: Case 14
Description: as §1, §2

[3] = Case 14
Description: as §1, §2

[4] = not given; remark: listed apart in the source
[5] = Chelation-provoked urine test, urinary tungsten; type: in vivo, human; conditions: Case 7, 6 hour urine
Description: as §1, §2

[6] = Case 14; remark: listed apart in the source
Description: as §1, §2

[7] = Chelation-provoked urine test, urinary cadmium; type: in vivo, human
Description: as §1, §2

[8] = Chelation-provoked urine test, urinary uranium; type: in vivo, human; conditions: for urinary uranium, times the reference range: Case 9
Description: as §1, §2

[9] = Chelation-provoked urine test, urinary nickel; type: in vivo, human
Description: as §1, §2

[10] = Chelation-provoked urine test, metals revealed (in words); conditions: for metals excreted on provocation: Case 9, postpartum
Description: as §1, §2

[11] = Maternal chelation treatment, pregnancy, child and patient outcome; type: in vivo, human
[12] = Case 5
Description: as §1, §2

[13] = Case 5, DMPS chelation provocation, before treatment
[14] = Case 5, DMPS provocation, previously (before treatment)
[15] = Case 7, one 300-mg capsule DMPS, 6 hour urine
[16] = Case 14, DMPS provocation October 2003, before treatment
[17] = Case 14, DMPS series, follow up October 2005 after oral DMSA and essential daily defense
[18] = Case 14, after series of intravenous DMPS chelation treatments October 2003 to May 2004
[19] = DMPS provocation October 2003, before treatment
[20] = DMPS series, follow up October 2005 after oral DMSA and essential daily defense
[21] = after series of intravenous DMPS chelation treatments October 2003 to May 2004
[22] = Case 2, oral DMSA 250 mg three times a day, 24 hour urine
[23] = Case 4, after 4 months oral DMSA, 4 x 250 mg three times daily, 3 days per week
[24] = Case 4, four capsules DMSA 250 mg, 6 hour urine, before treatment
[25] = Case 7, one 250-mg capsule DMSA orally, 6 hour urine
[26] = DMSA 1000 mg PO x1, 6 hour urine
[27] = Case 5, EDTA provocation, before treatment
[28] = Case 5, EDTA provocation, previously (before treatment)
[29] = Case 13, 3 grams EDTA and 3 grams vitamin C intravenous push, 6 hour collection
[30] = Case 14, EDTA series, June 2004 after intravenous EDTA and DMPS chelation treatments
[31] = Case 14, EDTA series, long-term follow up October 2005 after a little DMSA with essential daily defense
[32] = Case 14, intravenous EDTA provocation January 2004, during the treatment period
[33] = EDTA series, June 2004 after intravenous EDTA and DMPS chelation treatments
[34] = EDTA series, long-term follow up October 2005 after a little DMSA with essential daily defense
[35] = intravenous EDTA provocation January 2004, during the treatment period
[36] = 3 grams calcium EDTA in 100 cc NS over 30 minutes, 6 hour urine

Compound: O=S(=O)(O)CC(S)CS (stereo not shown) [DMPS, Dimercaptopropanesulfonic Acid]
- urinary lead [1, 13]: 6.39 (normal <1.41) mcg/g creatinine
- urinary lead, times normal [1, 14]: 4 × normal
- urinary lead [1, 15]: 4.6 (normal <1.41)
- urinary lead [1, 16]: 7.9 (normal <1.41) mcg/g creatinine
- urinary lead [1, 17]: 2.6 mcg/g creatinine
- urinary lead [1, 18]: 0.9 mcg/g creatinine
- urinary antimony [13]: 0.84 (normal <0.14) mcg/g creatinine
- urinary antimony, times normal [14]: 6 × normal
- urinary antimony [16]: 0.48 (normal <0.14) mcg/g creatinine
- urinary antimony [17]: 0.18 mcg/g creatinine
- urinary antimony [18]: 0.05 mcg/g creatinine
- urinary tin [2, 19]: 10.4 (normal <2.04) mcg/g creatinine
- urinary tin [2, 20]: 3.03 mcg/g creatinine
- urinary tin [2, 21]: 0.4 mcg/g creatinine
- urinary thorium [3, 19]: 0 (normal <0.124) mcg/g creatinine
- urinary thorium [3, 20]: 0 mcg/g creatinine
- urinary thorium [3, 21]: 0.019 mcg/g creatinine
- urinary mercury [4, 13]: 38.55 (normal <6.97) mcg/g creatinine
- urinary mercury, times normal [4, 14]: 5 × normal
- urinary mercury [4, 16]: 7.3 (normal <2.14) mcg/g creatinine
- urinary mercury [4, 17]: 4.6 mcg/g creatinine
- urinary mercury [4, 18]: 6 mcg/g creatinine
- urinary tungsten ([5]; one 300-mg capsule DMPS): 7.07 (normal <0.34)
- urinary arsenic [6, 19]: 159 (normal <50) mcg/g creatinine
- urinary arsenic [6, 20]: 34 mcg/g creatinine
- urinary arsenic [6, 21]: 20 mcg/g creatinine
- urinary cadmium [7, 16]: 0.82 (normal <0.64) mcg/g creatinine
- urinary cadmium [7, 17]: 0.17 mcg/g creatinine
- urinary cadmium [7, 18]: 0.16 mcg/g creatinine
- urinary uranium [8, 15]: 0.034 (normal <0.013)
- urinary uranium [8, 16]: 0.042 (normal <0.026) mcg/g creatinine
- urinary uranium [8, 17]: 3 mcg/g creatinine
- urinary uranium [8, 18]: 0 mcg/g creatinine
- urinary nickel [9, 15]: 132 (normal <9.5)
- urinary nickel [9, 16]: 9.3 (normal <9.5) mcg/g creatinine
- urinary nickel [9, 17]: 0.7 mcg/g creatinine
- urinary nickel [9, 18]: 3.2 mcg/g creatinine
- metals revealed on provocation ([10]; Case 10, DMPS 300 mg PO x1, 6 hour urine): elevated levels of lead, mercury, aluminum, antimony, cadmium, nickel, tin, tungsten and uranium
- metals revealed on provocation ([10]; Case 12, DMPS 300 mg PO x2, 6 hour urine): marked elevation of nickel as well as abnormally elevation of arsenic, cadmium and lead

Compound: O=C(O)C(S)C(S)C(=O)O (stereo not shown) [DMSA, Dimercaptosuccinic Acid]
- follow-up chelation-provoked urine, total body lead ([1]; Case 1, after 15 cycles DMSA three capsules three times a day, three days a week): a decrease in total body lead
- urinary lead concentration on provocation ([1]; Case 1, oral DMSA 250 mg three times a day, 24 hour urine): 20 mcg/g creatinine
- urinary lead concentration after provocation [1, 22]: 14 mcg/g creatinine
- urinary lead, follow up provocation [1, 23]: 1.34 mcg/g creatinine
- provoked urinary lead [1, 24]: 13.6 mcg/g creatinine
- urinary lead [1, 25]: 4.79 (normal <1.41) mcg/g creatinine
- urinary tin after provocation [2, 22]: 9 mcg/g creatinine
- urinary tin, follow up provocation [2, 23]: 0.9 mcg/g creatinine
- provoked urinary tin [2, 24]: 12.5 mcg/g creatinine
- chronic fatigue during treatment ([11]; Case 4, during 4 months oral DMSA): chronic fatigue resolved
- chronic fatigue ([11]; Case 5, calcium EDTA + vitamin C IV together with oral DMSA): chronic fatigue improved
- neurological development of the baby ([11]; Case 5, parent treated preconceptionally with calcium EDTA + vitamin C IV and oral DMSA): above average neurological development
- urinary tungsten ([5]; one 250-mg capsule DMSA orally): 6.41 (normal <0.34) mcg/g creatinine
- urinary cadmium, follow up provocation [7, 23]: 0.18 mcg/g creatinine
- provoked urinary cadmium [7, 24]: 1.79 mcg/g creatinine
- urinary uranium [8, 25]: 0.05 (normal <0.031) mcg/g creatinine
- urinary uranium, times the reference range [8, 26]: > 100 × the reference range
- urinary nickel [9, 25]: 77 (normal <9.5) mcg/g creatinine
- metals revealed by chelation-provoked urine test ([10]; Case 6, oral DMSA challenge three days after delivery): presence of both lead and mercury
- metals excreted on provocation [10, 26]: excretion of a number of metals, including lead, mercury, cadmium and uranium
- metals revealed on challenge ([10]; Case 10, DMSA 250 mg PO x1, 6 hour urine): elevated amounts of lead, aluminum, antimony, barium, nickel, gallium, tin, tungsten, and uranium
- metals revealed on provocation ([10]; Case 11, 1000 mg DMSA orally x1, 6 hour urine): elevated levels of lead, mercury, tin, uranium and tungsten

Compound: O=C(O)CN(CCN(CC(=O)O)CC(=O)O)CC(=O)O [EDTA, Ethylenediamine Tetra-acetic Acid]
- urinary lead [1, 27]: 25.14 (normal <1.41) mcg/g creatinine
- urinary lead, times normal [1, 28]: 18 × normal
- urinary lead, times normal ([1]; Case 5, repeat EDTA provocation after 3 g calcium EDTA + 3 g vitamin C IV two times per week and DMSA 500 mg per day orally): 8 × normal
- urinary lead [1, 29]: 6.15 mcg/g creatinine
- urinary lead [1, 30]: 5.5 mcg/g creatinine
- urinary lead [1, 31]: 7.97 mcg/g creatinine
- urinary lead [1, 32]: 4.6 mcg/g creatinine
- urinary antimony [30]: 0.15 mcg/g creatinine
- urinary antimony [31]: 0.09 mcg/g creatinine
- urinary antimony [32]: 0.18 mcg/g creatinine
- urinary tin [2, 33]: 0.3 mcg/g creatinine
- urinary tin [2, 34]: 0.4 mcg/g creatinine
- urinary tin [2, 35]: 0.6 mcg/g creatinine
- urinary thorium [3, 33]: 0.06 mcg/g creatinine
- urinary thorium [3, 34]: 0 mcg/g creatinine
- urinary thorium [3, 35]: 0.22 mcg/g creatinine
- child outcome after delivery ([11]; Case 8, oral EDTA 3000 mg per day with vitamin C, selenium and garlic): healthy and neurologically normal
- delivery outcome ([11]; Case 8, parent with lead and mercury, oral EDTA 3000 mg per day with vitamin C 5000 mg per day, selenium 200 micrograms three times per day, garlic 6000 mg per day): normal delivery with no evidence of fetal distress
- neurological development of the child ([11]; Case 13, child, parents had ten intravenous EDTA chelations): admirable neurological development
- urinary mercury [4, 29]: 3.09 mcg/g creatinine
- urinary mercury [4, 30]: 0 mcg/g creatinine
- urinary mercury [4, 31]: 9.4 mcg/g creatinine
- urinary mercury [4, 32]: 0 mcg/g creatinine
- urinary aluminum ([12]; EDTA provocation, before treatment): 176.8 (normal <98.7) mcg/g creatinine
- urinary aluminum, times normal ([12]; EDTA provocation, previously (before treatment)): 2 × normal
- urinary aluminum, times normal ([12]; repeat EDTA provocation after calcium EDTA + vitamin C IV and oral DMSA treatment): 0.2 × normal
- urinary arsenic [6, 33]: 32 mcg/g creatinine
- urinary arsenic [6, 34]: 46 mcg/g creatinine
- urinary arsenic [6, 35]: 90 mcg/g creatinine
- urinary cadmium [7, 27]: 3.18 (normal <0.76) mcg/g creatinine
- urinary cadmium [7, 29]: 0.86 mcg/g creatinine
- urinary cadmium [7, 30]: 1.75 mcg/g creatinine
- urinary cadmium [7, 31]: 2.66 mcg/g creatinine
- urinary cadmium [7, 32]: 1.59 mcg/g creatinine
- urinary uranium [8, 27]: 0.33 (normal <0.013) mcg/g creatinine
- urinary uranium, times the reference range [8, 36]: > 40 × the reference range
- urinary uranium [8, 31]: 0.012 mcg/g creatinine
- urinary nickel [9, 27]: 36.9 (normal <9.5) mcg/g creatinine
- urinary nickel, times normal [9, 28]: 4 × normal
- urinary nickel, times normal ([9]; Case 5, repeat EDTA provocation after calcium EDTA + vitamin C IV and oral DMSA treatment): 3 × normal
- urinary nickel [9, 30]: 30 mcg/g creatinine
- urinary nickel [9, 31]: 26 mcg/g creatinine
- urinary nickel [9, 32]: 41 mcg/g creatinine
- metals excreted on provocation [10, 36]: significant excretion of lead, mercury, cadmium and uranium
- metals revealed on provocation ([10]; Case 11, 3 grams calcium EDTA in 100 cc normal saline IV over 30 minutes, 6 hour urine): elevated levels of lead, mercury, aluminum, cadmium, gadolinium, gallium, tin, tungsten, and uranium
